Measurements reported in article PMC9405973, “Altered Conformational Landscape upon Sensing Guanine Nucleotides in a Disease Mutant of Elongation Factor-like 1 (EFL1) GTPase” (Biomolecules, 2022).

What was measured:
Efl1 R1086Q = target: T1, Efl1 R1086Q (Saccharomyces cerevisiae, UniProt P53893, R1086Q); assay: Isothermal titration calorimetry (ITC): binding of guanine nucleotides or Sdo1 to Efl1 R1086Q; settings: for Nconfres (number of residues changing conformation, absolute value) / ΔCpb: +Mg^2+; for Nconfres (number of residues changing conformation, absolute value): 30 °C; for ΔCpb: guanine nucleotide, from ΔHb at 25–35 °C
T1 construct: made in house; host or cells: Saccharomyces cerevisiae
Experimental: (§1) All calorimetric measurements were carried out using MicroCal^TM iTC200 System (GE Healthcare, Northampton, MA, USA) in a temperature range of 25–35 °C. Experiments were performed in a buffer consisting of 50 mM Tris-HCl (pH 8.0), 150 mM NaCl, 100 µM DTT, and 5% glycerol. In the titrations with Mg^2+-bound nucleotides, both the ligand and protein solutions contained 5 mM MgCl2. In the case of titrations with Mg^2+-free nucleotide, both the ligand and protein solutions were supplemented with 2 mM EDTA to sequester any residual trace of metal ions in solution. Protein samples and ligands were prepared in the exact same buffer prior to each titration. Protein concentration in the cell comprised 30–50 µM GTPase, while the ligand concentration in the syringe was 2–3 mM for GTP, MgGTP, GDP, and MgGDP. To ensure measuring the interaction of the complex Efl1 R1086Q•Sdo1 with the nucleotide, an eight-fold concentration excess of Sdo1 was used compared with that of the enzyme. […] The titration schedule consisted of 15–20 consecutive injections of the ligand with 5 min intervals between injections and a stirring rate of 700 rpm. The dilution heat of the ligand was obtained by adding the ligand to a buffer solution under identical conditions and with the same injection schedule used for the protein sample. All samples were degassed for 10 min prior to the experiment.
(§2) The binding isotherms obtained for the isolated GTPase in the presence of Mg(II) were analysed using a ternary model in which the protein can bind to the free nucleotide (G(D)TP) or that bound to one magnesium ion (MgG(D)TP); additionally, GTP may also exist in the form of Mg2GTP, which is not recognised by the protein. The derivation of this coupled-equilibria model can be reviewed in [6, 31]. The binding constant (Kb), the enthalpy change (∆Hb), and the stoichiometry (n) were obtained with the non-linear routines implemented in Origin 5.0 (OriginLab, Co., Northampton, MA, USA) using a one-binding-site model as described in [32, 33]. The heterotropic cooperativity for the binding of guanine nucleotides and Sdo1 to Efl1 R1086Q were calculated as previously described in [6, 32]. The cooperative effects of Mg(II) on the binding of guanine nucleotides to Efl1 R1086Q alone and bound to Sdo1 were calculated as follows:κ = KE-MG/KE-G κ = KES-MG/KES-G Δh = ΔHE-MG − ΔHE-G Δh = ΔHES-MG − ΔHES-G where subscripts E-MG and E-G stand for the association of the metal-bound and metal-free guanine nucleotide with mutant Efl1, respectively. Corresponding expressions applied to the heterotropic cooperativity of the binding of nucleotides to the preformed complex, Efl1•Sdo1 (ES).
(§3) The impact of Sdo1 on the binding of Efl1 R1086Q to guanine nucleotides in the presence of magnesium ions is contained in KES-MG and ΔHES-MG relative to the KE-S and ΔHE-S values; analogous ratios report the effects in the absence of Mg(II):κ = KES-MG/KE-S κ = KES-G/KE-G Δh = ΔHES-MG − ΔHE-S Δh = ΔHES-G − ΔHE-G
(§4) The corresponding cooperative entropy change was calculated as:TΔs = Δh − Δg = Δh + RTlnκ
(§5) The detailed methodology and equations to compute the changes in the accessible surface area (∆ASA) of the GTPase upon binding to nucleotides and the ∆S energetic-based parameters are reported in [6]. Briefly, the water-accessible areas (ASAs) were computed using programme NACCESS, while the changes in accessible surface area (ΔASA) upon the formation of each GTPase–nucleotide complex were estimated considering the difference between the complex and the sum of the free interacting partners. The calculated polar (ΔASAp) and apolar (ΔASAap) area changes were subsequently used to estimate the free molecular partners. […]

Efl1 R1086Q•Sdo1 = target: T2, Efl1 R1086Q•Sdo1 (Saccharomyces cerevisiae, UniProt P53893, R1086Q); assay: ITC: binding of guanine nucleotides to pre-formed complex Efl1 R1086Q•Sdo1
T2 construct: made in house; host or cells: Efl1: Saccharomyces cerevisiae; Sdo1: Escherichia coli C41
Experimental: as §1, §2, §3, §4, §5

Efl1 R1086Q P151L = target: T3, Efl1 R1086Q P151L (Saccharomyces cerevisiae, UniProt P53893, P151L/R1086Q); assay: ITC: binding of GTP to double mutant Efl1 R1086Q P151L; settings: +Mg^2+, from ΔHb at 25–35 °C
T3 construct: made in house; host or cells: Saccharomyces cerevisiae

wild-type Efl1 = settings: guanine nucleotide, +Mg^2+; cited from earlier work
[1] = Enzyme kinetics of GTP hydrolysis (PNP coupled assay, Michaelis–Menten); format: biochemical, Saccharomyces cerevisiae; settings: enzyme in complex with Sdo1 (25 µM Sdo1)
Experimental: Finally, we measured the enzyme kinetics of mutant Efl1 R1086Q as an isolated enzyme and bound to Sdo1 using an enzymatic coupled assay with a purine nucleoside phosphorylase (PNP) enzyme. This analysis was extended to another disease mutation (EFL1 M882K) also located in domain IV of the GTPase using the equivalent yeast variant, Efl1 L910K [17]. The Km and kcat kinetic parameters were calculated using non-linear regression assuming a Michaelis–Menten model (Supplementary Table S1). […] The catalytic constant for mutant R1086Q and the wild-type enzyme consisted of 0.67 min^−1, and it was 0.58 min^−1 for mutant Efl1 L910K. […] In line with the proposed role of Sdo1 as a guanine exchange factor of Efl1, previous results have shown that the interaction of wild-type Efl1 with Sdo1 impacted its Km for GTP, decreasing its value 2–3-fold. The Km values for the complexes formed between Sdo1 and Efl1 mutants decreased by half with respect to their cognate-free counterpart and differed from each other. […] The measured Km value comprises all the microscopic rate constants of the individual reactions occurring in the enzyme, which include the binding to the substrate and product and the corresponding conformational changes.
Hydrolysis of GTP was measured using the Enzchek Phosphate Assay kit (Molecular Probes) as described by Webb. Standard reactions consisted of 100 µL containing 6 µM of Efl1 R1086Q and Efl1 L910K, 0.3 mM MESG, 1.0 U purine nucleoside phosphorylase (PNP) and the indicated amounts of GTP. Measurements done in the presence of effector protein contained 25 µM of Sdo1.
The reaction buffer consisted of 50 mM HEPES -KOH pH 7.5, 150 mM NaCl, 5 mM MgCl2.
Reactions were initiated and the GTPase was added after 3 min. Time courses were followed by recording the change in absorbance at 360 nm in a Cary 60 UV -Vis spectrophotometer (Agilent Technologies). Background absorbance was recorded prior to the addition of the GTPase and subtracted from the sample signals. The slope of the measured time courses corresponded to the GTP hydrolysis rate. The concentration of releas ed phosphate was estimated using a molar absorption coefficient at 360 nm of 14,386 M -1 cm-1 previously described in [2]. Data were analysed by nonlinear regression to the M ichaelis-Menten equation with the program Origin Version 5.0 (OriginLab, Co., Northampton, MA). […]
M HEPES-KOH pH 7.4, 2.5 mM magnesium acetate, 50 mM sucrose, 2 mM DTT, 0.1 mM PMSF, 0.1 mM benzamidine, 8 mM putrescine, 1 mM spermidine. […]
Dilution at the end of each titration was no longer than 2.5% of the initial volume. Data were corrected for the background signal by subtracting the fluorescence of the same ligand concentration without the GTPase in the reaction mixture.
Maximum emission at 440 nm was replotted as a function of nucleotide concentration and analysed

T3 sequence (P53893 whole entry P151L/R1086Q): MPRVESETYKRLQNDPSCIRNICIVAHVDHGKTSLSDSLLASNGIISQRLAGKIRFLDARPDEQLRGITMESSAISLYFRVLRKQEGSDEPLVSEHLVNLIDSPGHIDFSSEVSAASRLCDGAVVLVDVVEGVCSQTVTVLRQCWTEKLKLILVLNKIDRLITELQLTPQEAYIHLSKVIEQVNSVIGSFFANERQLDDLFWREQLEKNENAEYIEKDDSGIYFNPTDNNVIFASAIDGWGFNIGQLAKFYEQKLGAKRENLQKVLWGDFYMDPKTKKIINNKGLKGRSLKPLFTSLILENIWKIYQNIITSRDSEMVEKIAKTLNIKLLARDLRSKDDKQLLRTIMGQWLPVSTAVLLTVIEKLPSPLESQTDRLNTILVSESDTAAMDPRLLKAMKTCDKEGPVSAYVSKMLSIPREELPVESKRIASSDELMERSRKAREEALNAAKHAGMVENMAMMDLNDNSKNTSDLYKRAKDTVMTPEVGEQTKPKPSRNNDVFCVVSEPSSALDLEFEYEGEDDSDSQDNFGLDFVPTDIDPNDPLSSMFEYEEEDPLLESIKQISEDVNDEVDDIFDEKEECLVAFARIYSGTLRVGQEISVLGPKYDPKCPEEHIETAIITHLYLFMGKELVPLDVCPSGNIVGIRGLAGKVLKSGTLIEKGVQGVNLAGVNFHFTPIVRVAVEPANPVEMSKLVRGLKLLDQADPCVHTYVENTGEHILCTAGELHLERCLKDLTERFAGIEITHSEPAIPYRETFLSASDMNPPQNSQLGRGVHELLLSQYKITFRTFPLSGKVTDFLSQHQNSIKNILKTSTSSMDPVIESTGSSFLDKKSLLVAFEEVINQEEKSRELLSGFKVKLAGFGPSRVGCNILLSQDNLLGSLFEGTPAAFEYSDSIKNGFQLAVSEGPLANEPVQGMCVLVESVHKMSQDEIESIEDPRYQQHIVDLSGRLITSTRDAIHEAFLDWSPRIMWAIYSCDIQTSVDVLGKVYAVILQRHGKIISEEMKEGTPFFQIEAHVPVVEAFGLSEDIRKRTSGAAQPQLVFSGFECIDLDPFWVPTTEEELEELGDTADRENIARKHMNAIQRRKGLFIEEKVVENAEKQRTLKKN

Molecule: MgGDP
- increase in binding enthalpy as temperature increased (Efl1 R1086Q; 25 °C to 35 °C): ~ 3 kcal mol^−1
- Nconfres (number of residues changing conformation, absolute value) (Efl1 R1086Q): 21
- ΔCpb (Efl1 R1086Q): −270 cal mol^−1 K^−1
- surface buried by the conformational change (Efl1 R1086Q; refers to Table 3, 30 °C): ~ 1000 Å
- ΔΔCpb (Efl1 R1086Q•Sdo1 vs isolated enzyme) (Efl1 R1086Q•Sdo1; presence of magnesium ions): −45 cal mol^−1 K^−1

Molecule: MgGTP
- fold increase in affinity from 25 °C to 35 °C (Efl1 R1086Q; 35 °C vs 25 °C): 1.2 fold
- Nconfres (number of residues changing conformation, absolute value) (Efl1 R1086Q): 3
- ΔCpb (Efl1 R1086Q): 10 cal mol^−1 K^−1
- ΔCpb (Efl1 R1086Q P151L): −220 cal mol^−1 K^−1
- ΔCpb (wild-type Efl1): −560 cal mol^−1 K^−1
- Nconfres (number of residues changing conformation, absolute value) (Efl1 R1086Q•Sdo1; +Mg^2+, 30 °C): 36
- ΔCpb (Efl1 R1086Q•Sdo1; +Mg^2+, from ΔHb at 25–35 °C): −400 cal mol^−1 K^−1
- additional residues modified with respect to the isolated enzyme (Efl1 R1086Q•Sdo1; presence of magnesium ions): 40
- ΔΔCpb (Efl1 R1086Q•Sdo1 vs isolated enzyme) (Efl1 R1086Q•Sdo1; presence of magnesium ions): −410 cal mol^−1 K^−1

B1: Efl1 R1086Q • Sdo1: binary complex of mutant GTPase Efl1 R1086Q and effector Sdo1 (protein, UniProt P53893 1-1110; Q07953 1-250, looked up, variant R1086Q)
Ribosome assembly protein 1: MPRVESETYKRLQNDPSCIRNICIVAHVDHGKTSLSDSLLASNGIISQRLAGKIRFLDARPDEQLRGITMESSAISLYFRVLRKQEGSDEPLVSEHLVNLIDSPGHIDFSSEVSAASRLCDGAVVLVDVVEGVCSQTVTVLRQCWTEKLKPILVLNKIDRLITELQLTPQEAYIHLSKVIEQVNSVIGSFFANERQLDDLFWREQLEKNENAEYIEKDDSGIYFNPTDNNVIFASAIDGWGFNIGQLAKFYEQKLGAKRENLQKVLWGDFYMDPKTKKIINNKGLKGRSLKPLFTSLILENIWKIYQNIITSRDSEMVEKIAKTLNIKLLARDLRSKDDKQLLRTIMGQWLPVSTAVLLTVIEKLPSPLESQTDRLNTILVSESDTAAMDPRLLKAMKTCDKEGPVSAYVSKMLSIPREELPVESKRIASSDELMERSRKAREEALNAAKHAGMVENMAMMDLNDNSKNTSDLYKRAKDTVMTPEVGEQTKPKPSRNNDVFCVVSEPSSALDLEFEYEGEDDSDSQDNFGLDFVPTDIDPNDPLSSMFEYEEEDPLLESIKQISEDVNDEVDDIFDEKEECLVAFARIYSGTLRVGQEISVLGPKYDPKCPEEHIETAIITHLYLFMGKELVPLDVCPSGNIVGIRGLAGKVLKSGTLIEKGVQGVNLAGVNFHFTPIVRVAVEPANPVEMSKLVRGLKLLDQADPCVHTYVENTGEHILCTAGELHLERCLKDLTERFAGIEITHSEPAIPYRETFLSASDMNPPQNSQLGRGVHELLLSQYKITFRTFPLSGKVTDFLSQHQNSIKNILKTSTSSMDPVIESTGSSFLDKKSLLVAFEEVINQEEKSRELLSGFKVKLAGFGPSRVGCNILLSQDNLLGSLFEGTPAAFEYSDSIKNGFQLAVSEGPLANEPVQGMCVLVESVHKMSQDEIESIEDPRYQQHIVDLSGRLITSTRDAIHEAFLDWSPRIMWAIYSCDIQTSVDVLGKVYAVILQRHGKIISEEMKEGTPFFQIEAHVPVVEAFGLSEDIRKRTSGAAQPQLVFSGFECIDLDPFWVPTTEEELEELGDTADRENIARKHMNAIQRRKGLFIEEKVVENAEKQRTLKKN
Ribosome maturation protein …: MPINQPSGQIKLTNVSLVRLKKARKRFEVACYQNKVQDYRKGIEKDLDEVLQIHQVFMNVSKGLVANKEDLQKCFGTTNVDDVIEEIMHKGEIQLSEKERQLMLNKVNNEMLTIVSAKCINPVSKKRYPPTMIHKALQELKFSPVINKPAKLQALEAIKLLVSKQIIPIVRAKMKVKVAISEPSRQPELIEKISKLIASSPGESTKPELDPWTCTGLIDPVNYRDLMTLCDKKGTVQVLDMAVIDNTTHN
modifications: binary complex
- kcat [1]: 0.0112 s⁻¹
